Values quoted from earlier work in patent publication US20040235935A1, “Oral pharmaceutical composition containing a statin derivative” (priority 2001, published 2004).
In brackets after ≈: the same amount, converted by molar mass. Where two headings read alike, the source gives them in different places.

Columns and labels:
[1] = for Vsol = volume of water required to completely dissolve a 20 mg dose: solubility at pH 5
[2] = not given; remark: listed apart in the source
[3] = not given; remark: listed apart in the source
[4] = healthy humans, oral dose 20 mg
[5] = healthy humans, oral dose 40 mg

Row | Structure (SMILES) | pKa | AUC = area under plasma concentration-time curve [2, 4] [ng·h/mL] | Cmax = maximum plasma drug concentration [2, 4] [ng/mL] | Vsol = volume of water required to completely dissolve a 20 mg dose [1] | Solubility in water ([1]; at pH 5) [µg/mL] | other results
1 | CC(C)n1c(/C=C/C(O)CC(O)CC(=O)O)c(-c2ccc(F)cc2)c2ccccc21 (stereo not drawn) [Fluvastatin, fluvastatin] | 5.5 | 167 | 181 | – | – | Solubility in water ([1]; at pH 6): 2000 µg/mL (≈ 4860 µM); Peff = effective membrane permeability ([2]; healthy humans): 240 ×10⁻⁶ cm/s; F = bioavailability ([2]; healthy humans, oral): 10-35%
2 | CCC(C)C(=O)OC1CC(C)C=C2C=CC(C)C(CCC(O)CC(O)CC(=O)[O-])C21.[Na+] (stereo not drawn) [Lovastatin Hydroxy acid] | 5.5 | – | – | – | – | tmax = time to Cmax ([2]; human, in vivo, po, 20 mg): 2.8 h; fa = fraction of the administered dose absorbed ([2]; in vivo): ˜31%
3 | CC[C@H](C)C(=O)O[C@H]1C[C@@H](C)C=C2C=C[C@H](C)[C@H](CC[C@@H]3C[C@@H](O)CC(=O)O3)[C@H]21 [Lovastatin Lactone, lovastatin] | – | – | – | 15 385 ml | 1.3 (≈ 3.21 µM) | D = partition coefficient (logarithm of partition ratio between octanol and water at pH 7) ([3]; pH 7): 4.3
4 | CC[C@H](C)C(=O)O[C@H]1C[C@H](O)C=C2C=C[C@H](C)[C@H](CC[C@@H](O)C[C@@H](O)CC(=O)O)[C@H]21 [Pravastatin Hydroxy acid, pravastatin] | 5.5 | 90.2 | 38.4 | – | 300000 (≈ 707000 µM) | EH = liver extraction ratio ([2]; healthy humans): 45%; fa = fraction of the administered dose absorbed ([2]; healthy humans): ˜34%
5 | CC[C@H](C)C(=O)O[C@H]1C[C@H](O)C=C2C=C[C@H](C)[C@H](CC[C@@H]3C[C@@H](O)CC(=O)O3)[C@H]21 [Pravastatin Lactone] | – | – | – | 111 mL | 180 (≈ 443 µM) | –
6 | CCC(C)(C)C(=O)O[C@H]1C[C@@H](C)C=C2C=C[C@H](C)[C@H](CC[C@@H](O)C[C@@H](O)CC(=O)O)[C@H]21 [Simvastatin Hydroxy acid] | 5.5 | – | – | – | – | times more readily dissolved in octanol than in water ([3]; from the partition coefficients at pH 7): 126 times; AUC = area under plasma concentration-time curve [2, 5]: 58.1 ng·h/mL; Cmax = maximum plasma drug concentration [2, 5]: 58.1 ng/mL
